US20090099195A1 (ASTRAZENECA AB, priority 2007, published 2009)

Biological target: T1, hP2X3 (human Purinergic P2X receptors subtype 3), clone B (Homo sapiens, UniProt P56373)
T1 sequence (P56373 1-397): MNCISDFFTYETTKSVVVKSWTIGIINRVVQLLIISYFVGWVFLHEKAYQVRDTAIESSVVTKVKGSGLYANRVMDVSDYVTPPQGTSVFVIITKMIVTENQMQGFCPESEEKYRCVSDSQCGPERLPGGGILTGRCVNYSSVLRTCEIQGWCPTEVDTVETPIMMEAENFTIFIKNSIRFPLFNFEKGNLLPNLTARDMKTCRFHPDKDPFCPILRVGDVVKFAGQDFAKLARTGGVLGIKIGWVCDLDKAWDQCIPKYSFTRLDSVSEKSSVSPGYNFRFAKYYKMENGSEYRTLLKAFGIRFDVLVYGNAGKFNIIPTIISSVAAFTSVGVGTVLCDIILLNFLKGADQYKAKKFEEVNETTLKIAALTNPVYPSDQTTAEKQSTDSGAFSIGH
Assay: hP2X3 FLIPR calcium (Fluo-4) antagonist assay, clone B
Conditions: Human P2X3 FLIPR Clone B IC50 (nM), RLE cells expressing hP2X3 clone B (NM_002559); agonist 500 nM α,β-methylene-ATP

| SMILES | IC50 |
| --- | --- |
| CC(=O)N1CCN(c2nc3c(c(N4CCC[C@@H]4C(=O)N4CCC(C)CC4)n2)CN(C(C)C)C3=O)CC1 [Example 303, 4-(4-acetylpiperazin-1-yl)-2-[(2R)-2-(4-methylpiperidine-1-carbonyl)pyrrolidin-1-yl]-8-propan-2-yl-3,5,8-triazabicyclo[4.3.0]nona-2,4,10-trien-7-one] | 2300 nM |
| O=C1c2nc(N3CCOCC3)nc(NC(c3ccccc3)c3ccccc3)c2CN1C1CCCC1 [Example 75, 4-(Benzhydryl-amino)-6-cyclopentyl-2-morpholin-4-yl-5,6-dihydro-pyrrolo[3,4-d]pyrimidin-7-one] | > 30000 nM |
| CC(=O)N1CCN(c2nc(NCC(c3ccccc3)c3ccccc3)c3c(n2)C(=O)N(C(C)C)C3)CC1 [Example 91, 2-(4-acetylpiperazin-1-yl)-4-[(2,2-diphenylethyl)amino]-6-isopropyl-5,6-dihydro-7H-pyrrolo[3,4-d]pyrimidin-7-one] | 100 nM |
| CC(C)N1Cc2c(NC(C)(C)Cc3ccc(Cl)cc3)nc(NCCCN3CCCC3=O)nc2C1=O [Example 66, 4-{[2-(4-chlorophenyl)-1,1-dimethylethyl]amino}-6-isopropyl-2-{[3-(2-oxopyrrolidin-1-yl)propyl]amino}-5,6-dihydro-7H-pyrrolo[3,4-d]pyrimidin-7-one] | 1400 nM |
| CC(=O)N1CCN(c2nc(N[C@@H](C)c3cnc4ccccc4c3)c3c(n2)C(=O)N(C(C)C)C3)CC1 [Example 234, (S)-2-(4-acetylpiperazin-1-yl)-6-isopropyl-4-(1-(quinolin-3-yl)ethylamino)-5H-pyrrolo[3,4-d]pyrimidin-7(6H)-one] | 1100 nM |
| CC(=O)N1CCN(c2nc(NC(C)(C)Cc3ccc(F)cc3)c3c(n2)C(=O)N(Cc2ccccc2Cl)C3)CC1 [Example 315, 2-(4-acetylpiperazin-1-yl)-6-(2-chlorobenzyl)-4-(1-(4-fluorophenyl)-2-methylpropan-2-ylamino)-5H-pyrrolo[3,4-d]pyrimidin-7(6H)-one] | 3000 nM |
| CCCN1Cc2c(NC(c3ccccc3)c3ccccc3)nc(N3CCOCC3)nc2C1=O [Example 110, 4-[(diphenylmethyl)amino]-2-morpholin-4-yl-6-propyl-5,6-dihydro-7H-pyrrolo[3,4-d]pyrimidin-7-one] | 3300 nM |
| CC(=O)N1CCN(c2nc(N[C@@H]3CCC[C@H]3c3ccc(Cl)cc3)c3c(n2)C(=O)N(C(C)C)C3)CC1 (racemic) [Example 33, 2-(4-acetylpiperazin-1-yl)-4-{[trans-2-(4-chlorophenyl)cyclopentyl]amino}-6-isopropyl-5,6-dihydro-7H-pyrrolo[3,4-d]pyrimidin-7-one] | 580 nM |
| Cc1ccc(C(Nc2nc(NCCN(C)C)nc3c2CN(C(C)C)C3=O)c2ccccc2)cc1 (centres unmarked) [Example 7, 2-{[2-(dimethylamino)ethyl]amino}-6-isopropyl-4-{[(4-methylphenyl)(phenyl)methyl]amino}-5,6-dihydro-7H-pyrrolo[3,4-d]pyrimidin-7-one] | 85 nM |
| CC(=O)N1CCN(c2nc3c(c(N4CCCCC4Cc4ccccc4)n2)CN(C(C)C)C3=O)CC1 (centres unmarked) [Example 266, 4-(4-acetylpiperazin-1-yl)-2-(2-benzyl-1-piperidyl)-8-propan-2-yl-3,5,8-triazabicyclo[4.3.0]nona-1,3,5-trien-7-one] | 1000 nM |
| CCOc1ccc(CC2CCCN2c2nc(N3CCN(C(C)=O)CC3)nc3c2CN(C(C)C)C3=O)cc1 (centres unmarked) [Example 289, 2-(4-acetylpiperazin-1-yl)-4-[2-[(4-ethoxyphenyl)methyl]pyrrolidin-1-yl]-6-isopropyl-5H-pyrrolo[4,3-e]pyrimidin-7-one] | 330 nM |
| CCN1CCN(c2nc(NC(c3ccccc3)c3ccccn3)c3c(n2)C(=O)N(C(C)C)C3)CC1 (centres unmarked) [Example 119, 2-(4-ethylpiperazin-1-yl)-6-isopropyl-4-{[phenyl(pyridin-2-yl)methyl]amino}-5,6-dihydro-7H-pyrrolo[3,4-d]pyrimidin-7-one] | 3200 nM |
| CC(C)N1Cc2c(NC(c3ccccc3)c3ccccc3)nc(NCCO)nc2C1=O [Example 100] | 1100 nM |
| CCC(C)N1Cc2c(NCc3cnc4ccccc4c3)nc(N3CCN(C(C)=O)CC3)nc2C1=O (single isomer, unassigned; (-)) [Example 309, (−)-2-(4-acetylpiperazin-1-yl)-4-(3-quinolylmethylamino)-6-sec-butyl-5H-pyrrolo[3,4-d]pyrimidin-7-one] | 42 nM |
| CCN1Cc2c(NC(C)(C)Cc3ccc(F)cc3)nc(N3CCN(C(C)=O)CC3)nc2C1=O [Example 118, 2-(4-acetylpiperazin-1-yl)-6-ethyl-4-{[2-(4-fluorophenyl)-1,1-dimethylethyl]amino}-5,6-dihydro-7H-pyrrolo[3,4-d]pyrimidin-7-one] | 1100 nM |
| CC(=O)N1CCN(c2nc(NCc3cn(C4CCCC4)nc3C)c3c(n2)C(=O)N(C(C)C)C3)CC1 [Example 152, 4-(4-acetylpiperazin-1-yl)-2-[(1-cyclopentyl-3-methyl-pyrazol-4-yl)methylamino]-8-propan-2-yl-3,5,8-triazabicyclo[4.3.0]nona-2,4,10-trien-7-one] | 270 nM |
| CC(C)N1Cc2c(NC(C)(C)Cc3ccc(Cl)cc3)nc(N3CCN(C(=O)C4CC4)CC3)nc2C1=O [Example 126, 4-{[2-(4-chlorophenyl)-1,1-dimethylethyl]amino}-2-[4-(cyclopropylcarbonyl)piperazin-1-yl]-6-isopropyl-5,6-dihydro-7H-pyrrolo[3,4-d]pyrimidin-7-one] | 2300 nM |
| CC(=O)N1CCN(c2nc3c(c(N4CCC[C@@H]4C(=O)N4CCc5ccccc54)n2)CN(C(C)C)C3=O)CC1 [Example 279, 4-(4-acetylpiperazin-1-yl)-2-[(2R)-2-(2,3-dihydroindole-1-carbonyl)pyrrolidin-1-yl]-8-propan-2-yl-3,5,8-triazabicyclo[4.3.0]nona-1,3,5-trien-7-one] | 1800 nM |
| CCN1CCN(c2nc(NCC(c3ccccc3)c3ccccc3)c3c(n2)C(=O)N(C(C)C)C3)CC1 [Example 107, 4-(2,2-Diphenyl-ethylamino)-2-(4-ethyl-piperazin-1-yl)-6-isopropyl-5,6-dihydro-pyrrolo[3,4-d]pyrimidin-7-one] | 2300 nM |
| CC(=O)N1CCN(c2nc3c(c(N4CCC[C@@H]4C(=O)OC(C)(C)C)n2)CN(C(C)C)C3=O)CC1 [Example 277, tert-butyl (2R)-1-[4-(4-acetylpiperazin-1-yl)-7-oxo-8-propan-2-yl-3,5,8-triazabicyclo[4.3.0]nona-1,3,5-trien-2-yl]pyrrolidine-2-carboxylate] | 7700 nM |
| CC(=O)N1CCN(c2nc(NC(c3ccc(C(C)C)cc3)C(C)C)c3c(n2)C(=O)N(C(C)C)C3)CC1 (centres unmarked) [Example 10, 2-(4-acetylpiperazin-1-yl)-6-isopropyl-4-{[1-(4-isopropylphenyl)-2-methylpropyl]amino}-5,6-dihydro-7H-pyrrolo[3,4-d]pyrimidin-7-one] | 1200 nM |
| CC(=O)N1CCN(c2nc(N[C@@H](C)c3ccc4ncccc4c3)c3c(n2)C(=O)N(C(C)C)C3)CC1 [Example 244, (S)-2-(4-acetylpiperazin-1-yl)-6-isopropyl-4-(1-(quinolin-6-yl)ethylamino)-5H-pyrrolo[3,4-d]pyrimidin-7(6H)-one] | 6500 nM |
| CC(=O)N1CCN(c2nc(NC(C)(C)Cc3ccc(F)cc3)c3c(n2)C(=O)N(C(C)C(C)C)C3)CC1 (centres unmarked) [Example 313, 2-(4-acetylpiperazin-1-yl)-4-(1-(4-fluorophenyl)-2-methylpropan-2-ylamino)-6-(3-methylbutan-2-yl)-5H-pyrrolo[3,4-d]pyrimidin-7(6H)-one] | 280 nM |
| CC(=O)N1CCN(c2nc3c(c(N4CCCC4CCc4ccccc4)n2)CN(C(C)C)C3=O)CC1 (centres unmarked) [Example 271, 4-(4-acetylpiperazin-1-yl)-2-(2-phenethylpyrrolidin-1-yl)-8-propan-2-yl-3,5,8-triazabicyclo[4.3.0]nona-1,3,5-trien-7-one] | 870 nM |
| CC(=O)N1CCN(c2nc3c(c(N4CCCC4Cc4ccccc4)n2)CN(C(C)C)C3=O)CC1 (centres unmarked) [Example 54, 2-(4-acetylpiperazin-1-yl)-4-(2-benzylpyrrolidin-1-yl)-6-isopropyl-5,6-dihydro-7H-pyrrolo[3,4-d]pyrimidin-7-one] | 240 nM |
| CC(=O)N1CCN(c2nc3c(c(N(C)Cc4ccc(Cl)cc4)n2)CN(C(C)C)C3=O)CC1 [Example 111, 2-(4-acetylpiperazin-1-yl)-4-[(4-chlorobenzyl)(methyl)amino]-6-isopropyl-5,6-dihydro-7H-pyrrolo[3,4-d]pyrimidin-7-one] | 9000 nM |
| CC(=O)N1CCN(c2nc(NC(C)c3ccc(C(F)(F)F)cc3)c3c(n2)C(=O)N(C(C)C)C3)CC1 (centres unmarked) [Example 28, 2-(4-acetylpiperazin-1-yl)-6-isopropyl-4-({1-[4-(trifluoromethyl)phenyl]ethyl}amino)-5,6-dihydro-7H-pyrrolo[3,4-d]pyrimidin-7-one] | 200 nM |
| CC(C)N1Cc2c(NCc3cnc4ccccc4c3)nc(N(C)C)nc2C1=O [Example 220, 2-(dimethylamino)-6-(1-methylethyl)-4-[(quinolin-3-ylmethyl)amino]-5,6-dihydro-7H-pyrrolo[3,4-d]pyrimidin-7-one] | 9600 nM |
| CC(=O)N1CCN(c2nc(NCCc3ccc(C)cc3C)c3c(n2)C(=O)N(C(C)C)C3)CC1 [Example 56, 2-(4-acetylpiperazin-1-yl)-4-{[2-(2,4-dimethylphenyl)ethyl]amino}-6-isopropyl-5,6-dihydro-7H-pyrrolo[3,4-d]pyrimidin-7-one] | 2700 nM |
